In patent US20240024299A1, “USE OF DRUGS THAT STIFFEN MATURE GAMETOCYTES FOR BLOCKING TRANSMISSION OF PLASMODIUM PARASITES” (INSERM (INSTITUT NATIONAL DE LA SANTÉ ET DE LA RECHERCHE …, priority 2020, published 2024):

Legend:
[1] = system: P. falciparum gametocytes; experiment: microsphiltration (spleen-mimetic microfilters) retention / stiffening of mature gametocytes, dose-response; format: cell-based, Plasmodium falciparum; settings: for IC50: Plasmodium falciparum, mature gametocytes, retention in microsphiltration, read-out: stiffening effect IC50; for activity by readout (readout 1 male and female gametocytes staining vs readout 2 specific female gametocytes staining): dose-response curves, data not shown
Excerpt: FIG. 1. Screening progression cascade. ReFrame library (12,805 compounds), Kinase Inhibitors Box (350 compounds) and Pathogen Box (400 compounds) were screened with “microsphiltration” against P. falciparum gametocytes. Hits from primary screening were further selected by dose-response analysis (DRA). Confirmed 82 hits were divided in 7 groups, based on their activity and molecular target (data not shown). Hits repartition is shown in parenthesis, along with the name of one representative hit for each group. A score was assigned to each DRA confirmed hit, based on route of administration, safety in human clinical trials, pharmacokinetic and affordability for developing countries, leading to final selection of 3 hits for further in vitro and in vivo confirmation experiments.
FIG. 2. Representative single 384-wells plate scatterplots of primary screening. Each well of a screening plate is loaded with pre-spotted compounds while two columns are left for controls. They are represented as follows: empty circles for non-selected compounds and black circles for hits (352 wells), black squares for negative control (DMSO 0.05%, 16 wells), black squares for main positive control (NITD609 0.5 μM, 8 wells), light black empty squares for retention positive control (Calyculin A 75 nM, 6 wells), black squares for killing control (Gentian Violet 50 μM, 2 wells). For each well, killing and retention values are calculated and distributed in a “xy” graph. Two graphs are made for each plate: one using male and female gametocytes imaging (“readout 1”, left panel) and one using specific female gametocytes imaging (“readout 2”, right panel). For each graph, a linear regression (solid line) is tracked with 95% confidence interval (dashed lines). The compounds beyond the upper confidence interval in both readouts are identified as hits. A) Plate number 15 of ReFRAME library: 8 hits with readout 1, 11 hits with readout 2, 4 hits (shared between the two readouts) finally identified. B) Plate number 9 of ReFRAME library: 7 hits with readout 1, 11 hits with readout 2, 5 hits finally individuated, including NITD609 (highlighted with an arrow). In few cases, compounds with only killing effect were added to hitlist.
FIG. 4. Examples of dose-response curves (DRCs) of confirmed hits. Every hit from primary screening has been re-tested in duplicate (ReFrame library) and in triplicate (Kinase Inhibitors and Pathogen Box libraries) for dose-response, starting from 5 (10 μM for ReFrame hits) to 5 nM. For each of them, a DRC for killing and retention was tracked and IC50 was calculated (one for readout 1, male and female gametocytes staining, one for readout 2, specific female gametocytes staining). Error bars denote the standard deviation. The first curve is referred to killing effect and the second curve to retention effect normalized on DMSO negative control. Chemical structure of the compound is represented for each DRC. Hits and readouts have been selected among the ones with lowest variability, with the addition of TD-6450 and L-THP due to their high priority. […] Readout 2 has been selected for all of them except APPCL. […] Readout 2 used for all of them. […] Readout 2 used for all of them except TD-6450.

[2] = system: P. falciparum gametocytes; experiment: killing of mature gametocytes in the microsphiltration screen, dose-response; format: cell-based; settings: Plasmodium falciparum, read-out: killing effect IC50
Excerpt: FIG. 1. Screening progression cascade. ReFrame library (12,805 compounds), Kinase Inhibitors Box (350 compounds) and Pathogen Box (400 compounds) were screened with “microsphiltration” against P. falciparum gametocytes. Hits from primary screening were further selected by dose-response analysis (DRA). Confirmed 82 hits were divided in 7 groups, based on their activity and molecular target (data not shown). Hits repartition is shown in parenthesis, along with the name of one representative hit for each group. […]
FIG. 2. […] For each well, killing and retention values are calculated and distributed in a “xy” graph. Two graphs are made for each plate: one using male and female gametocytes imaging (“readout 1”, left panel) and one using specific female gametocytes imaging (“readout 2”, right panel). […] The compounds beyond the upper confidence interval in both readouts are identified as hits. A) Plate number 15 of ReFRAME library: 8 hits with readout 1, 11 hits with readout 2, 4 hits (shared between the two readouts) finally identified. B) Plate number 9 of ReFRAME library: 7 hits with readout 1, 11 hits with readout 2, 5 hits finally individuated, including NITD609 (highlighted with an arrow). […]
FIG. 4. […] For each of them, a DRC for killing and retention was tracked and IC50 was calculated (one for readout 1, male and female gametocytes staining, one for readout 2, specific female gametocytes staining). […]

With `COc1cc2c(cc1OC)[C@@H]1Cc3ccc(OC)c(OC)c3CN1CC2` [L-THP, (13aS)-2,3,9,10-tetramethoxy-6,8,13,13a-tetrahydro-5H-isoquinolino[2,1-b]isoquinoline] the IC50 [1] was 5 nM.
`CC(C)(CN)c1nc(-c2ccc(Cl)c(O)c2)c(-c2ccnc(N)n2)[nH]1` [MMV030734] was tested, and the “activity by readout (readout 1 male and female gametocytes staining vs readout 2 specific female gametocytes staining)” value [1] was “specifically actives on readout 2”.
With `O=C(NCCN1CCCC1)c1cc(NCCCCN2CCC(F)(F)CC2)nc2ccc(Cl)cc12` [MMV667494] the “activity by readout (readout 1 male and female gametocytes staining vs readout 2 specific female gametocytes staining)” value [1] was “specifically actives on readout 2”.
Work on `C[C@H]1Cc2c([nH]c3cc(Cl)c(F)cc23)[C@@]2(N1)C(=O)Nc1ccc(Cl)cc12` [NITD609, (1R,3S)-5′,7-Dichloro-6-fluoro-3-methyl-spiro[2,3,4,9-tetrahydropyrido[3,4-b]indole-1,3′-indoline]-2′-one] yielded an IC50 [1] of 50 nM and an IC50 [2] of 100 nM.
Work on `CNC(=O)N1C[C@@H](C)N(c2ccc(C(=O)Nc3ccc(-c4ccc(-c5c[nH]c([C@@H]6CCCN6C(=O)[C@@H](NC(=O)OC)C(C)C)n5)cc4)c(OC(F)(F)F)c3)cn2)C[C@@H]1C` [TD-6450, carbamic acid, N-[(1S)-1-[[(2S)-2-[5-[4′-[[[6-[(2R,5S)-2,5-dimethyl-4-[(methylamino)carbonyl]-1-piperazinyl]-3-pyridinyl]carbonyl]amino]-2′-(trifluoromethoxy) [1,1′-biphenyl]-4-yl]-1H-imidazol-2-yl]-1-pyrrolidinyl]carbonyl]-2-methylpropyl]-, methyl ester] yielded an IC50 [1] of 600 nM.
